Results taken from US9328083B2, “2-aminated methylene or 2-esterified methylene tanshinone derivatives, and preparation method and application thereof” (HANGZHOU BENSHENG PHARMACEUTICAL CO., LTD., priority 2011, dated 2016).
Values after ≈ are worked out from the molar mass of the structure shown.

Columns and labels:
tumor-bearing nude mice = conditions: literature; cited from earlier work
MG63 (osteosarcoma) = assay: MTT growth inhibition of human solid tumor cells, 72 h; format: cell-based; conditions: MG-63, 72 h
In short: (§1)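 Test agents, held as a 10 mg/mL solution in dimethylsulfoxide at 4° C in the dark, are diluted with culture medium and applied at several concentrations to cells seeded 24 h earlier (4000/well, high-glucose DMEM, 10% fetal bovine serum, 37° C, 5% CO2).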

PC-3 (prostate cancer) = assay: as above; format: cell-based; conditions: PC-3, 72 h
In short: as §1

[1] = test system: PANC-1 (pancreatic cancer); assay: as above; format: cell-based; conditions: PANC-1, 72 h
In short: as §1

[2] = test system: Hep G2 (human liver cancer cell); assay: as above; format: cell-based; conditions: Hep G2, 72 h
In short: as §1

A549 (human lung cancer) = assay: as above; format: cell-based; conditions: A549, 72 h
In short: as §1

[3] = test system: RKO (human colon adenocarcinoma cell); assay: as above; format: cell-based
In short: as §1

[4] = test system: SK-OV-3 (ovarian cancer cell); assay: as above; format: cell-based; conditions: SK-OV-3, 72 h
In short: as §1

[5] = test system: U87 MG (malignant glioma cell); assay: as above; format: cell-based; conditions: U87-MG, 72 h
In short: as §1

[6] = test system: CaES-17 (esophageal cancer cell); assay: as above; format: cell-based; conditions: CaEs-17, 72 h
In short: as §1

[7] = test system: MGC 803 (human gastric cancer cell); assay: as above; format: cell-based; conditions: MGC-803, 72 h
In short: as §1

[8] = test system: CNE (nasopharyngeal carcinoma cell); assay: as above; format: cell-based
In short: as §1

[9] = test system: Hela (human cervical cancer cell); assay: as above; format: cell-based; conditions: Hela, 72 h
In short: as §1

[10] = test system: Becap37 (human breast cancer cell); assay: as above; format: cell-based; conditions: Becap-37, 72 h
In short: as §1

[11] = test system: Hep-2 (laryngeal carcinoma); assay: as above; format: cell-based; conditions: HeP-2, 72 h
In short: as §1

Hep G2 cells = conditions: in vitro, literature; cited from earlier work
[12] = background statement; cited from earlier work
[13] = test system: SGC-7901 human gastric adenocarcinoma cells; conditions: concentration dependent within a certain range, literature; cited from earlier work
[14] = test system: Kasumi-1 (acute myeloid leukemia M2 type, AML-M2); assay: MTT growth inhibition of leukemia cells, 72 h; format: cell-based, human; conditions: Kasumi-1, 72 h
In short: (§2)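 Leukemia cells (6000/well) seeded in RPMI-1640 with 10% FBS; next day tanshinone I derivatives added at graded concentrations, diluted from 10 mg/mL DMSO stock. Incubated 72 h at 37° C, 5% CO2; viable cells measured by MTT.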

[15] = test system: H9 (acute lymphoblastic leukemia, ALL); assay: MTT growth inhibition of leukemia cells, 72 h; format: cell-based, human; conditions: H9, 72 h
In short: as §2

[16] = test system: Jurkat (acute lymphoblastic leukemia, ALL); assay: MTT growth inhibition of leukemia cells, 72 h; format: cell-based, human; conditions: 72 h
In short: as §2

[17] = test system: K562/adr (drug-resistant, chronic myeloid leukemia, CML); assay: MTT growth inhibition of leukemia cells, 72 h; format: cell-based, human; conditions: K562/ADR
In short: as §2

[18] = test system: NB4 (acute promyelocytic leukemia, AML); assay: MTT growth inhibition of leukemia cells, 72 h; format: cell-based, human; conditions: NB4, 72 h
In short: as §2

[19] = test system: RPMI8226 (multiple myeloma); assay: MTT growth inhibition of multiple myeloma cells, 72 h; format: cell-based, human; conditions: RPMI 8226, 72 h
In short: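 RPMI8226 myeloma cells, 6000 per well in 1640 medium with 10% FBS, exposed to compounds at a range of concentrations (diluted from 10 mg/mL DMSO stock) for 72 h at 37° C, 5% CO2. Viable cells then determined by MTT.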

[20] = background statement; cited from earlier work; remark: listed apart in the source

- IC50 (MG63 (osteosarcoma)): 0.96 µg/mL (≈ 3.47 µM)
- IC90 (MG63 (osteosarcoma)): >16 µg/mL
- IC50 (PC-3 (prostate cancer)): 6.63 µg/mL (≈ 24 µM)
- IC90 (PC-3 (prostate cancer)): 10.57 µg/mL (≈ 38.3 µM)
- IC50 [1]: 2.7 µg/mL (≈ 9.77 µM)
- IC90 [1]: >16 µg/mL
- IC50 [2]: 2.19 µg/mL (≈ 7.93 µM)
- IC90 [2]: 22.13 µg/mL (≈ 80.1 µM)
- IC50 (A549 (human lung cancer)): 4.03 µg/mL (≈ 14.6 µM)
- IC90 (A549 (human lung cancer)): 17.29 µg/mL (≈ 62.6 µM)
- IC50 [3]: 1.83 µg/mL (≈ 6.62 µM)
- IC90 [3]: >16 µg/mL
- IC50 [4]: >16 µg/mL
- IC90 [4]: >16 µg/mL
- IC50 [5]: 6.36 µg/mL (≈ 23 µM)
- IC90 [5]: 14.63 µg/mL (≈ 53 µM)
- IC50 [6]: 3.18 µg/mL (≈ 11.5 µM)
- IC90 [6]: 16.00 µg/mL (≈ 57.9 µM)
- IC50 [7]: 1.62 µg/mL (≈ 5.86 µM)
- IC90 [7]: 9.26 µg/mL (≈ 33.5 µM)
- IC50 [8]: 7.4 µg/mL (≈ 26.8 µM)
- IC90 [8]: >16 µg/mL
- IC50 [9]: 4 µg/mL (≈ 14.5 µM)
- IC90 [9]: >16 µg/mL
- IC50 [10]: 3.03 µg/mL (≈ 11 µM)
- IC90 [10]: >16 µg/mL
- IC50 [11]: 3.15 µg/mL (≈ 11.4 µM)
- IC90 [11]: >16 µg/mL
- IC50 [14]: 0.99 µg/mL (≈ 3.58 µM)
- IC90 [14]: 3.62 µg/mL (≈ 13.1 µM)
- IC50 [15]: 3.5 µg/mL (≈ 12.7 µM)
- IC90 [15]: 13.06 µg/mL (≈ 47.3 µM)
- IC50 [16]: 1.74 µg/mL (≈ 6.3 µM)
- IC90 [16]: 8.42 µg/mL (≈ 30.5 µM)
- IC50 [17]: 0.88 µg/mL (≈ 3.19 µM)
- IC90 [17]: 4.17 µg/mL (≈ 15.1 µM)
- IC50 [18]: 0.98 µg/mL (≈ 3.55 µM)
- IC90 [18]: 2.50 µg/mL (≈ 9.05 µM)
- IC50 [19]: 0.96 µg/mL (≈ 3.47 µM)
- IC90 [19]: 10.86 µg/mL (≈ 39.3 µM)
Structure (SMILES): Cc1coc2c1C(=O)C(=O)c1c-2ccc2c(C)cccc12 [TA, 1,6-dimethyl-phenanthreno [1,2-b]furan-10,11-diketone, reference compound]
- tumor growth in tumor-bearing nude mice (tumor-bearing nude mice): can inhibit the tumor growth in the mice
- proliferation of Hep G2 cells (Hep G2 cells): can inhibit the proliferation of Hep G2 cells
- solubility in water [12]: poor solubility in water
- growth of SGC-7901 cells cultured in vitro [13]: significant inhibitory effect
- in vivo bioavailability [20]: low in vivo bioavailability
